Results published in the NIST ThermoML archive (doi:10.1021/acs.jced.8b01095).
Numbers after ± are expanded uncertainties.

What was measured:
[1] = Liquid; for viscosity: 2 kPa, Falling or rolling sphere viscometry; for speed of sound / mass density: 100 kPa; for speed of sound: Single path-length method; for mass density: Vibrating tube method
[2] = molar heat capacity at constant pressure; details: 100 kPa, Liquid, Extra sensitive DSC
[3] = xn = mol fraction of the nth substance listed; details: Liquid, x1 = 1; for viscosity: 2 kPa, Falling or rolling sphere viscometry; for speed of sound / mass density: 100 kPa; for speed of sound: Single path-length method; for mass density: Vibrating tube method

| Compound | viscosity ([1]; 298.15 K) [mPa·s] | speed of sound ([1]; 298.15 K) [m/s] | mass density ([1]; 298.15 K) [kg/m3] | viscosity ([1]; 303.15 K) [mPa·s] | speed of sound ([1]; 303.15 K) [m/s] | mass density ([1]; 303.15 K) [kg/m3] | viscosity ([1]; 308.15 K) [mPa·s] | speed of sound ([1]; 308.15 K) [m/s] | mass density ([1]; 308.15 K) [kg/m3] | viscosity ([1]; 313.15 K) [mPa·s] | speed of sound ([1]; 313.15 K) [m/s] | mass density ([1]; 313.15 K) [kg/m3] | viscosity ([1]; 318.15 K) [mPa·s] | speed of sound ([1]; 318.15 K) [m/s] | mass density ([1]; 318.15 K) [kg/m3] | viscosity ([1]; 323.15 K) [mPa·s] | speed of sound ([1]; 323.15 K) [m/s] | mass density ([1]; 323.15 K) [kg/m3] | molar heat capacity at constant pressure ([2]; 298.15 K) [J/K/mol] | molar heat capacity at constant pressure ([2]; 303.15 K) [J/K/mol] | also measured |
| --- | --- | --- | --- | --- | --- | --- | --- | --- | --- | --- | --- | --- | --- | --- | --- | --- | --- | --- | --- | --- | --- |
| CCCCn1cc[n+](C)c1.F[P-](F)(F)(F)(F)F [1-butyl-3-methylimidazolium hexafluorophosphate] | 272.86 ± 56 | 1443.7 ± 3.2 | 1367.24 ± 1.1 | 204.1 ± 47 | 1431.9 ± 3.2 | 1363.08 ± 1.1 | 155.7 ± 33 | 1420.1 ± 3.2 | 1358.91 ± 1.1 | 120.9 ± 24 | 1408.5 ± 3.2 | 1354.74 ± 1.1 | 95.39 ± 18 | 1397.1 ± 3.2 | 1350.58 ± 1.1 | 76.37 ± 15 | 1385.9 ± 3.2 | 1346.41 ± 1.1 | 407.08 ± 19 | 410.01 ± 19 | molar heat capacity at constant pressure ([2]; 308.15 K): 412.77 ± 19 J/K/mol; molar heat capacity at constant pressure ([2]; 313.15 K): 415.44 ± 19 J/K/mol; molar heat capacity at constant pressure ([2]; 318.15 K): 418.26 ± 19 J/K/mol; molar heat capacity at constant pressure ([2]; 323.15 K): 421.21 ± 20 J/K/mol |
| CCCCn1cc[n+](C)c1.F[P-](F)(F)(F)(F)F [1-butyl-3-methylimidazolium hexafluorophosphate] + CNc1ccccc1 | – | – | – | – | – | – | – | – | – | – | – | – | – | – | – | – | – | – | – | – | viscosity ([3]; 298.15 K): 272.86 ± 57 mPa·s; speed of sound ([3]; 298.15 K): 1443.7 ± 3.2 m/s; mass density ([3]; 298.15 K): 1367.24 ± 1.1 kg/m3; viscosity ([3]; 303.15 K): 204.1 ± 48 mPa·s; speed of sound ([3]; 303.15 K): 1431.9 ± 3.2 m/s; mass density ([3]; 303.15 K): 1363.08 ± 1.1 kg/m3; viscosity ([3]; 308.15 K): 155.7 ± 34 mPa·s; speed of sound ([3]; 308.15 K): 1420.1 ± 3.2 m/s; mass density ([3]; 308.15 K): 1358.91 ± 1.1 kg/m3; viscosity ([3]; 313.15 K): 120.9 ± 24 mPa·s; speed of sound ([3]; 313.15 K): 1408.5 ± 3.2 m/s; mass density ([3]; 313.15 K): 1354.74 ± 1.1 kg/m3; viscosity ([3]; 318.15 K): 95.39 ± 18 mPa·s; speed of sound ([3]; 318.15 K): 1397.1 ± 3.2 m/s; mass density ([3]; 318.15 K): 1350.58 ± 1.1 kg/m3; viscosity ([3]; 323.15 K): 76.37 ± 15 mPa·s; speed of sound ([3]; 323.15 K): 1385.9 ± 3.2 m/s; mass density ([3]; 323.15 K): 1346.41 ± 1.1 kg/m3 |
| CNc1ccccc1 [N-methylaniline] | 1.94 ± 0.62 | 1564.5 ± 0.7 | 982.7 ± 1.6 | 1.73 ± 0.62 | 1546.1 ± 0.7 | 978.59 ± 1.6 | 1.55 ± 0.61 | 1528.3 ± 0.7 | 974.47 ± 1.6 | 1.4 ± 0.61 | 1511.5 ± 0.7 | 970.36 ± 1.6 | 1.27 ± 0.61 | 1492.8 ± 0.7 | 966.24 ± 1.6 | 1.16 | 1476.2 ± 0.7 | 962.13 ± 1.6 | 207.12 ± 9.6 | 210.92 ± 9.8 | molar heat capacity at constant pressure ([2]; 308.15 K): 214.73 ± 10 J/K/mol; molar heat capacity at constant pressure ([2]; 313.15 K): 218.53 ± 10 J/K/mol; molar heat capacity at constant pressure ([2]; 318.15 K): 222.37 ± 10 J/K/mol; molar heat capacity at constant pressure ([2]; 323.15 K): 225.88 ± 10 J/K/mol |
| CCCC[n+]1ccn(C)c1.O=S(=O)([N-]S(=O)(=O)C(F)(F)F)C(F)(F)F | 49.24 ± 7.4 | 1227.9 ± 1.1 | 1436.62 ± 1.7 | 40 ± 6.5 | 1216.8 ± 1.1 | 1431.8 ± 1.7 | 33.02 ± 5 | 1205.8 ± 1.1 | 1426.98 ± 1.7 | 27.66 ± 3.9 | 1195 ± 1.1 | 1422.16 ± 1.7 | 23.47 ± 3.1 | 1184.2 ± 1.1 | 1417.34 ± 1.7 | 20.15 ± 2.8 | 1173.6 ± 1.1 | 1412.52 ± 1.7 | 567.22 ± 26 | 569.85 ± 26 | molar heat capacity at constant pressure ([2]; 308.15 K): 572.64 ± 27 J/K/mol; molar heat capacity at constant pressure ([2]; 313.15 K): 575.47 ± 27 J/K/mol; molar heat capacity at constant pressure ([2]; 318.15 K): 578.38 ± 27 J/K/mol; molar heat capacity at constant pressure ([2]; 323.15 K): 581.52 ± 27 J/K/mol |
| CCCC[n+]1ccn(C)c1.O=S(=O)([N-]S(=O)(=O)C(F)(F)F)C(F)(F)F + CNc1ccccc1 | – | – | – | – | – | – | – | – | – | – | – | – | – | – | – | – | – | – | – | – | viscosity ([3]; 298.15 K): 49.24 ± 7.4 mPa·s; speed of sound ([3]; 298.15 K): 1227.9 ± 1.1 m/s; mass density ([3]; 298.15 K): 1436.62 ± 1.1 kg/m3; viscosity ([3]; 303.15 K): 40 ± 6.5 mPa·s; speed of sound ([3]; 303.15 K): 1216.8 ± 1.1 m/s; mass density ([3]; 303.15 K): 1431.8 ± 1.1 kg/m3; viscosity ([3]; 308.15 K): 33.02 ± 5 mPa·s; speed of sound ([3]; 308.15 K): 1205.8 ± 1.1 m/s; mass density ([3]; 308.15 K): 1426.98 ± 1.1 kg/m3; viscosity ([3]; 313.15 K): 27.66 ± 3.9 mPa·s; speed of sound ([3]; 313.15 K): 1195 ± 1.1 m/s; mass density ([3]; 313.15 K): 1422.16 ± 1.1 kg/m3; viscosity ([3]; 318.15 K): 23.47 ± 3.1 mPa·s; speed of sound ([3]; 318.15 K): 1184.2 ± 1.1 m/s; mass density ([3]; 318.15 K): 1417.34 ± 1.1 kg/m3; viscosity ([3]; 323.15 K): 20.15 ± 2.8 mPa·s; speed of sound ([3]; 323.15 K): 1173.6 ± 1.1 m/s; mass density ([3]; 323.15 K): 1412.52 ± 1.1 kg/m3 |
